Earlier results in patent US7015306B2 (BioSynthema, Inc., priority 1999, dated 2006).
pKd: −log10 of the molar value.

Target: human brain neurotensin membranes
Conditions: read-out: Kd for binding on human brain neurotensin membranes; cited from earlier work

monoiodo-125 derivative of natural neurotensin: monoiodo-125 derivative of natural neurotensin, radioiodo analog from the literature
pKd: 9.59
